Assay results published in ChEMBL document CHEMBL1122994, “Effect of structural modification of the hydantoin ring on anticonvulsant activity” (J Med Chem, 1985).
The source made the active and inactive calls. The rule behind the calls is not given here.

How the values were obtained:
[1] = system: Mus musculus; assay: Anticonvulsant activity was evaluated by maximal electroshock seizure (MES) test at dose 600 mg/kg; No activity; assay type: functional
[2] = system: Mus musculus; assay: Anticonvulsant activity was evaluated by subcutaneous pentylenetetrazole (Metrazol) (sc Met) seizure test at dose 600 mg/kg; No activity; assay type: functional
[3] = system: Mus musculus; assay: Anticonvulsant activity was evaluated by Neurologic toxicity (the rotarod test) at dose 600 mg/kg; No activity; assay type: functional
[4] = system: Mus musculus; assay: Anticonvulsant activity was evaluated by subcutaneous pentylenetetrazole (Metrazol) (sc Met) seizure test at dose 300 mg/kg; 2=Noticeable activity; assay type: functional
[5] = species on record: Mus musculus; assay: Effective dose was evaluated by maximal electroshock seizure (MES) test; assay type: functional
[6] = Toxic dose was evaluated by neurological toxicity (the rotarod test); assay type: organism-based; conditions: mouse, in vivo
[7] = system: Mus musculus; assay: Anticonvulsant activity was evaluated by Neurologic toxicity (the rotarod test) at dose 300 mg/kg; 2=Noticeable activity; assay type: functional
[8] = system: Mus musculus; assay: Effective dose was evaluated by subcutaneous pentylenetetrazole (Metrazol) (sc Met) seizure test; assay type: functional
[9] = system: Mus musculus; assay: Anticonvulsant activity was evaluated by maximal electroshock seizure (MES) test at dose 100 mg/kg; 3=Noticeable activity; assay type: functional
[10] = system: Mus musculus; assay: Anticonvulsant activity was evaluated by maximal electroshock seizure (MES) test at dose 600 mg/kg; 1=Noticeable activity; assay type: functional
[11] = system: Mus musculus; assay: Anticonvulsant activity was evaluated by maximal electroshock seizure (MES) test at dose 300 mg/kg; 2=Noticeable activity; assay type: functional
[12] = system: Mus musculus; assay: Anticonvulsant activity was evaluated by subcutaneous pentylenetetrazole (Metrazol) (sc Met) seizure test at dose 100 mg/kg; 3=Noticeable activity; assay type: functional
[13] = system: Mus musculus; assay: Anticonvulsant activity was evaluated by Neurologic toxicity (the rotarod test) at dose 600 mg/kg; 1=Noticeable activity; assay type: functional
[14] = system: Mus musculus; assay: Anticonvulsant activity was evaluated by subcutaneous pentylenetetrazole (Metrazol) (sc Met) seizure test at dose 600 mg/kg; 1=Noticeable activity; assay type: functional
[15] = system: Mus musculus; assay: Effective dose was evaluated by subcutaneous pentylenetetrazole (Metrazol) (sc Met) seizure test; NE means not effective; assay type: functional, organism-based
[16] = system: Mus musculus; assay: Anticonvulsant activity was evaluated by subcutaneous pentylenetetrazole (Metrazol) (sc Met) seizure test at dose 30 mg/kg; assay type: functional

Cc1cn(C)c(=O)n1C
Activity [1]: 0
Activity [2]: 0
Activity [3]: 0

CC1(C)NC(=O)N(CCc2ccccc2)C1=O
Activity [4]: 2
ED50 [5]: 110 mg/kg
TD50 [6]: 243 mg/kg
Activity [7]: 2
ED50 [8]: 130 mg/kg
Activity [9]: 3

CNC(C)CNCc1ccccc1 (centres undefined)
Activity [1]: 0
Activity [7]: 2
Activity [2]: 0

CC1NC(=O)NC1=O (centres undefined)
Activity [1]: 0
Activity [2]: 0
Activity [3]: 0

COc1cccc(CN2C(=O)NC(C)(C)C2=O)c1
Activity [10]: 1
Activity [2]: 0
Activity [3]: 0

CC1(C)NC(=O)N2C=Cc3ccccc3C21 (centres undefined)
Activity [4]: 2
Activity [7]: 2
Activity [11]: 2

CN1C(=O)NC(c2ccccc2)C1=O (centres undefined)
ED50 [5]: 75 mg/kg
TD50 [6]: 271 mg/kg
Activity [12]: 3
Activity [13]: 1
ED50 [8]: 26 mg/kg
Activity [9]: 3

CC(N)C(=O)NCc1ccccc1 (centres undefined)
Activity [7]: 2
Activity [2]: 0
Activity [11]: 2

Cc1cn(-c2ccccc2)c(O)n1
Activity [10]: 1
Activity [2]: 0
Activity [13]: 1

O=C1NC(c2ccccc2)C(O)N1c1ccccc1 (centres undefined)
Activity [1]: 0
Activity [2]: 0
Activity [3]: 0

COc1cccc(CCCN2C(=O)NC(C)(C)C2=O)c1
Activity [7]: 2
Activity [11]: 2
Activity [14]: 1

CN1C(=O)NC(c2ccccc2)C1O (centres undefined)
Activity [4]: 2
Activity [3]: 0
Activity [14]: 1

Oc1nccn1-c1ccccc1
Activity [4]: 2
ED50 [5]: 124 mg/kg
TD50 [6]: 211 mg/kg
Activity [7]: 2
ED50 [8]: 173 mg/kg
Activity [9]: 3

CC1NC(=O)N(c2ccccc2)C1=O (centres undefined)
Activity [1]: 0
Activity [2]: 0
Activity [13]: 1

Cn1ccnc1O
Activity [1]: 0
Activity [2]: 0
Activity [3]: 0

CNC(=O)C(NC(C)=O)c1ccccc1 (centres undefined)
Activity [1]: 0
Activity [2]: 0
Activity [3]: 0

NC(=O)NC(=O)Cc1ccccc1 [PHENACEMIDE]
ED50 [5]: 87 mg/kg

CN1CC(c2ccccc2)NC1=O (centres undefined)
Activity [7]: 2
Activity [11]: 2
Activity [14]: 1

CC(=O)NC(C)C(=O)NCc1ccccc1 (centres undefined)
ED50 [5]: 77 mg/kg
Activity [2]: 0
Activity [13]: 1
Activity [9]: 3

CC1(C)NC(=O)N(CCc2ccccc2)C1O (centres undefined)
Activity [10]: 1
Activity [13]: 1
Activity [14]: 1

COc1ccc2c(c1)CCCN1C(=O)NC(C)(C)C21 (centres undefined)
Activity [1]: 0
Activity [2]: 0
Activity [3]: 0

CC1NC(=O)N(Cc2ccccc2)C1O (centres undefined)
Activity [11]: 2
Activity [13]: 1
Activity [14]: 1

CN1C(=O)NCC1O (centres undefined)
Activity [1]: 0
Activity [2]: 0
Activity [3]: 0

O=C1CNC(=O)N1c1ccccc1
Activity [10]: 1
Activity [2]: 0
Activity [3]: 0

CC1NC(=O)N(C)C1=O (centres undefined)
Activity [1]: 0
Activity [2]: 0
Activity [3]: 0

COc1cccc(CN2C(=O)NC(C)(C)C2O)c1 (centres undefined)
Activity [10]: 1
Activity [2]: 0
Activity [3]: 0

CNCC(NC)c1ccccc1 (centres undefined)
Activity [1]: 0
Activity [7]: 2
Activity [2]: 0

O=C1NC(=O)C(c2ccccc2)N1 (centres undefined)
ED50 [5]: 156 mg/kg
TD50 [6]: 399 mg/kg
Activity [12]: 3
Activity [11]: 2
Activity [13]: 1
ED50 [8]: 109 mg/kg

O=C1CNC(=O)N1Cc1ccccc1
Activity [4]: 2
ED50 [5]: 65 mg/kg
TD50 [6]: 224 mg/kg
Activity [7]: 2
ED50 [8]: 114 mg/kg
Activity [9]: 3

O=C1NC(=O)C(c2ccccc2)(c2ccccc2)N1 [PHENYTOIN]
ED50 [5]: 10 mg/kg
ED50 [15]: inactive

CC1NC(=O)N(C)C1O (centres undefined)
Activity [1]: 0
Activity [2]: 0
Activity [3]: 0

O=C1NCC(O)N1c1ccccc1 (centres undefined)
Activity [1]: 0
Activity [2]: 0
Activity [3]: 0

COc1cccc(CCCN2C(=O)NC(C)(C)C2O)c1 (centres undefined)
Activity [4]: 2
Activity [11]: 2
Activity [13]: 1

CC1C(=O)N(C)C(=O)N1C (centres undefined)
Activity [1]: 0
Activity [4]: 2
Activity [3]: 0

CN1C(=O)CNC1=O
Activity [1]: 0
Activity [2]: 0
Activity [3]: 0

CNC(=O)C(N)c1ccccc1 (centres undefined)
Activity [1]: 0
Activity [2]: 0
Activity [3]: 0

Cc1cn(C)c(O)n1
Activity [1]: 0
Activity [2]: 0
Activity [3]: 0

CC1C(O)N(C)C(=O)N1C (centres undefined)
Activity [1]: 0
Activity [2]: 0
Activity [3]: 0

CC1NC(=O)N(c2ccccc2)C1O (centres undefined)
Activity [10]: 1
Activity [13]: 1
Activity [14]: 1

O=C1NC(c2ccccc2)C(=O)N1c1ccccc1 (centres undefined)
Activity [1]: 0
Activity [2]: 0
Activity [3]: 0

Cc1cn(Cc2ccccc2)c(O)n1
Activity [4]: 2
ED50 [5]: 90 mg/kg
TD50 [6]: 268 mg/kg
Activity [11]: 2
Activity [13]: 1

Oc1nc(-c2ccccc2)cn1Cc1ccccc1
Activity [1]: 0
Activity [2]: 0
Activity [3]: 0

CCC1(c2ccccc2)NC(=O)N(C)C1=O (centres undefined) [MEPHENYTOIN]
ED50 [5]: 61 mg/kg
ED50 [8]: 31 mg/kg

Cn1cc(-c2ccccc2)nc1O
Activity [10]: 1
Activity [3]: 0
Activity [14]: 1

Oc1nc(-c2ccccc2)cn1-c1ccccc1
Activity [1]: 0
Activity [4]: 2
Activity [3]: 0

O=C1NC(c2ccccc2)C(=O)N1Cc1ccccc1 (centres undefined)
Activity [1]: 0
Activity [2]: 0
Activity [3]: 0

COc1cc2c(cc1OC)C1N(CC2)C(=O)NC1(C)C (centres undefined)
Activity [1]: 0
Activity [2]: 0
Activity [13]: 1

O=C1NCC(O)N1Cc1ccccc1 (centres undefined)
Activity [10]: 1
Activity [2]: 0
Activity [3]: 0

CC1NC(=O)N(Cc2ccccc2)C1=O (centres undefined)
Activity [4]: 2
Activity [13]: 1
Activity [16]: 4

O=C1NC(c2ccccc2)C(O)N1Cc1ccccc1 (centres undefined)
Activity [1]: 0
Activity [2]: 0
Activity [3]: 0
